Results: PubChem BioAssay (NCI)
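Briefly, cells in 96-well plates were exposed to five compound concentrations for 48 h, and endpoints were estimated by linear interpolation. TGI is the concentration that stops growth completely.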

Key:
Test in all cases: NCI-60 cell line screen, 48 h
HS 578T breast = tested on: HS 578T breast
M14 melanoma = tested on: M14 melanoma
MOLT-4 leukemia = tested on: MOLT-4 leukemia
A549 NSCLC = tested on: A549 NSCLC
EKVX NSCLC = tested on: EKVX NSCLC
OVCAR-5 ovarian = tested on: OVCAR-5 ovarian
OVCAR-3 ovarian = tested on: OVCAR-3 ovarian
NCI/ADR-RES ovarian = tested on: NCI/ADR-RES ovarian
KM12 colon = tested on: KM12 colon
SK-OV-3 ovarian = tested on: SK-OV-3 ovarian
SN12C renal = tested on: SN12C renal
HT29 colon = tested on: HT29 colon
MCF7 breast = tested on: MCF7 breast
SF-268 CNS = tested on: SF-268 CNS
HCT-15 colon = tested on: HCT-15 colon
UACC-62 melanoma = tested on: UACC-62 melanoma
A498 renal = tested on: A498 renal
MDA-MB-435 = tested on: MDA-MB-435
MDA-MB-231 breast = tested on: MDA-MB-231 breast
HCT-116 colon = tested on: HCT-116 colon
SK-MEL-28 melanoma = tested on: SK-MEL-28 melanoma
OVCAR-4 ovarian = tested on: OVCAR-4 ovarian
CAKI-1 renal = tested on: CAKI-1 renal
COLO 205 colon = tested on: COLO 205 colon
HOP-62 NSCLC = tested on: HOP-62 NSCLC
NCI-H522 lung = tested on: NCI-H522 lung
UACC-257 melanoma = tested on: UACC-257 melanoma
SR leukemia = tested on: SR leukemia
NCI-H226 lung = tested on: NCI-H226 lung
UO-31 renal = tested on: UO-31 renal
K-562 leukemia = tested on: K-562 leukemia
SNB-19 CNS = tested on: SNB-19 CNS
PC-3 prostate = tested on: PC-3 prostate
DU-145 prostate = tested on: DU-145 prostate
IGROV1 ovarian = tested on: IGROV1 ovarian
SK-MEL-2 melanoma = tested on: SK-MEL-2 melanoma
NCI-H23 lung = tested on: NCI-H23 lung
RXF 393 renal = tested on: RXF 393 renal
BT-549 breast = tested on: BT-549 breast
U251 CNS = tested on: U251 CNS
MALME-3M melanoma = tested on: MALME-3M melanoma
T-47D breast = tested on: T-47D breast
LOX IMVI melanoma = tested on: LOX IMVI melanoma
NCI-H460 lung = tested on: NCI-H460 lung
SK-MEL-5 melanoma = tested on: SK-MEL-5 melanoma
SF-295 CNS = tested on: SF-295 CNS
786-0 renal = tested on: 786-0 renal
OVCAR-8 ovarian = tested on: OVCAR-8 ovarian
CCRF-CEM leukemia = tested on: CCRF-CEM leukemia
MDA-N = tested on: MDA-N
SF-539 CNS = tested on: SF-539 CNS
HOP-92 NSCLC = tested on: HOP-92 NSCLC
TK-10 renal = tested on: TK-10 renal
SNB-75 CNS = tested on: SNB-75 CNS
HL-60(TB) leukemia = tested on: HL-60(TB) leukemia
ACHN renal = tested on: ACHN renal
SW-620 colon = tested on: SW-620 colon

Measured: TGI

COc1cc(S(=O)(=O)Nc2nc(-c3ccc(N)cc3)cs2)ccc1Cl
> 100 µM: all assays above
